# Reference: paper PMC8486872, “A rational blueprint for the design of chemically-controlled protein switches” (Nature Communications, 2021)
# Where “and” joins values, the source holds several entries; their conditions need not be identical. Equal values may be shown once.
# Tests used:
# [1] = tested on: SEAP and Luciferase expression in HEK293T cells; experiment: SIMO designer cells (AIR-1/2-GEMS + CDH-1/2-TF); assay type: cell-based; parameters: Bottom (best-fit value) / Top (best-fit value) / Span (best-fit value): unit not given here; conditions: for logIC50 (best-fit value): drug in nM
# Text: (§1) Fig. 5 Orthogonal chemical switches enable implementation of multi-input multi-output control modes in mammalian cells. a Scheme of multi-inputs multi-outputs (MIMO) designer cells where two drugs control two different outputs. b, c Cells were co-transfected with AIR-1/2-GEMS and CDH-3-TF regulate SEAP and Luciferase expression, respectively. […] AIR-1/2-GEMS coupled with SEAP expression circuits were co-transfected with CDH-1/2-TF circuits which control the Luciferase production. Respective drug concentrations ranged from 0.001 nM to 1 µM. All values presented are mean ± s.d. of three replicates and curves were fitted by four-parameters nonlinear regression. b, c, e, f, h, i Source data are available in the source data file.
# Finally, we engineered SIMO cells (Fig. 5g) using two designed switches that produce ON and OFF responses upon exposure to the same drug. We transfected cells with combinations of AIR-GEMS and CDH-TFs which controlled the expression of the reporter proteins SEAP and Luciferase, respectively. […] Therefore, computational design expanded the repertoire of protein switches controlled by the same compounds that can be used to simultaneous turn ON and OFF synergistic outputs. […]
# AIR-1-GEMS coupled with SEAP expression circuits (i) and CDH-1-TF circuits which control the Luciferase production (j). j-k) Quantification of SEAP and Luciferase activities under Drug-2. AIR-2-GEMS coupled with SEAP expression circuits (k) and CDH-2-TF circuits which control the Luciferase production (l). b-k) Each data point represents the mean of n = 3 biological replicates, and the dose-dependent curve were fitted using four-parameter nonlinear regression.
# [2] = tested on: SEAP expression in HEK293T cells; experiment: MISO designer cells (CDH-1 + CDH-3 dual switches); assay type: cell-based; parameters: SEAP / Bottom (best-fit value) / Top (best-fit value) / Span (best-fit value): unit not given here; conditions: for logIC50 (best-fit value): drug in nM; for SEAP, Drug-1 turn OFF CDH-1-TF: Fig S13f; for SEAP, Drug-1 turn OFF CDH-1-GEMS: Fig S13g, representative data
# Text: as §1, with “All values presented are mean ± s.d. of three replicates and curves were fitted by four-parameters nonlinear regression. b, c, e, f, h, i Source data are available in the source data file.” left out
# We then engineered MISO cells (Fig. 5d) with CDH-1-TF and CDH-3-TF dual switches (Fig. 5e) that encode OFF behaviors controlled by Drug-1 and Drug-3. […] This output behavior is distinct from the typical SISO systems which only show two persistent states (high, low) (Fig. 2c, f). […] This type of output in biological systems could be utilized to produce graded levels of responses that are robust to minor oscillations in drug concentrations, and could be used to dissect fundamental biological processes but also to provide persistent response levels in translational applications.
# 1-TF and CDH-3-TF circuits. Drug-1 concentrations ranged from 0.001 nM to 1 µM (left) and 1 µM Drug-1 with serial diluted Drug-3 from 0.001 nM to 1 µM (right). g) Quantification of SEAP activity controlled […]
# by CDH-1-GEMS and CDH-3-GEMS circuits. […]
# Luciferase production (l). b-k) Each data point represents the mean of n = 3 biological replicates, and the dose-dependent curve were fitted using four-parameter nonlinear regression.
# [3] = sheet Figure5h, Luciferase, four-parameter fit
# [4] = sheet Figure5h, SEAP, four-parameter fit
# [5] = Fig5e SEAP, CDH-1-TF, + 1 µM Drug-3, four-parameter fit
# [6] = Fig5f SEAP, CDH-1-GEMS, + 1 µM Drug-3, three-parameter fit
compound,measurement,setting,value
"CN(C)CC#Cc1ccc(OCCCc2sc(N3CCc4cccc(C(=O)Nc5nc6ccccc6s5)c4C3)nc2C(=O)O)c(F)c1 [Drug-1, A-1155463]",SEAP,"[1]; Fig S13h, AIR-1-GEMS control SEAP expression only, Drug-1 316 nM",301 U/L and 339 U/L and 443 U/L
same,Luciferase,"[1]; Fig S13h, AIR-1-GEMS control SEAP expression only, Drug-1 1000 nM",239.146 RLU and 224.11 RLU and 201.76 RLU
same,Bottom (best-fit value),[1]; [3],1591
same,HillSlope (best-fit value),[1]; [3],-0.5534
same,Span (best-fit value),[1]; [3],8125
same,Top (best-fit value),[1]; [3],9717
same,logIC50 (best-fit value),[1]; [3],1.252
same,IC50,"[1]; sheet Figure5h, Luciferase, four-parameter fit, read-out: IC50 (best-fit value)",17.9 nM
same,Bottom (best-fit value),[1]; [4],10.72
same,HillSlope (best-fit value),[1]; [4],0.8045
same,Span (best-fit value),[1]; [4],94.16
same,Top (best-fit value),[1]; [4],104.9
same,logIC50 (best-fit value),[1]; [4],1.797
same,Bottom (best-fit value),[2]; [5],10.05
same,HillSlope (best-fit value),[2]; [5],-1.155
same,Span (best-fit value),[2]; [5],11.2
same,Top (best-fit value),[2]; [5],21.26
same,logIC50 (best-fit value),[2]; [5],0.9359
same,SEAP,"[2]; Fig5e, turn OFF CDH-1-TF, 0.001 nM + 1 µM Drug-3",16.8327 and 22.6453 and 20.005
same,SEAP,"[2]; Fig5e, turn OFF CDH-1-TF, 0.01 nM + 1 µM Drug-3",20.9002 and 22.3965 and 21.4625
same,SEAP,"[2]; Fig5e, turn OFF CDH-1-TF, 0.1 nM + 1 µM Drug-3",21.6157 and 22.7521 and 21.3586
same,SEAP,"[2]; Fig5e, turn OFF CDH-1-TF, 1 nM + 1 µM Drug-3",21.4038 and 20.3272 and 21.0988
same,SEAP,"[2]; Fig5e, turn OFF CDH-1-TF, 10 nM + 1 µM Drug-3",13.4848 and 15.392 and 15.5387
same,SEAP,"[2]; Fig5e, turn OFF CDH-1-TF, 100 nM + 1 µM Drug-3",11.183 and 12.1962 and 11.7139
same,SEAP,"[2]; Fig5e, turn OFF CDH-1-TF, 1000 nM + 1 µM Drug-3",9.72 and 8.497 and 9.661
same,Bottom (best-fit value),[2]; [6],12.41
same,Span (best-fit value),[2]; [6],42.02
same,Top (best-fit value),[2]; [6],54.44
same,logIC50 (best-fit value),[2]; [6],0.8832
same,SEAP,"[2]; Fig5f, turn OFF CDH-1-GEMS, 0.001 nM + 1 µM Drug-3",55.6364 and 50.5517 and 48.8723
same,SEAP,"[2]; Fig5f, turn OFF CDH-1-GEMS, 0.01 nM + 1 µM Drug-3",61.2598 and 59.0443 and 45.7788
same,SEAP,"[2]; Fig5f, turn OFF CDH-1-GEMS, 0.1 nM + 1 µM Drug-3",46.4102 and 62.6516 and 50.3302
same,SEAP,"[2]; Fig5f, turn OFF CDH-1-GEMS, 1 nM + 1 µM Drug-3",57.5516 and 40.155 and 62.0361
same,SEAP,"[2]; Fig5f, turn OFF CDH-1-GEMS, 10 nM + 1 µM Drug-3",22.2271 and 39.6828 and 23.9896
same,SEAP,"[2]; Fig5f, turn OFF CDH-1-GEMS, 100 nM + 1 µM Drug-3",14.7907 and 24.2066 and 13.0137
same,SEAP,"[2]; Fig5f, turn OFF CDH-1-GEMS, 1000 nM + 1 µM Drug-3",8.999 and 11.1728 and 14.7089
same,"SEAP, Drug-1 turn OFF CDH-1-TF",[2]; Drug-1 0.001 nM,37.8605 U/L and 37.6407 U/L and 37.2767 U/L
same,"SEAP, Drug-1 turn OFF CDH-1-TF",[2]; Drug-1 0.01 nM,46.3191 U/L and 36.6964 U/L and 37.3836 U/L
same,"SEAP, Drug-1 turn OFF CDH-1-TF",[2]; Drug-1 0.1 nM,40.0956 U/L and 39.4221 U/L and 42.0031 U/L
same,"SEAP, Drug-1 turn OFF CDH-1-TF",[2]; Drug-1 1 nM,42.0045 U/L and 40.1385 U/L and 32.8382 U/L
same,"SEAP, Drug-1 turn OFF CDH-1-TF",[2]; Drug-1 10 nM,31.0901 U/L and 30.8325 U/L and 26.6542 U/L
same,"SEAP, Drug-1 turn OFF CDH-1-TF",[2]; Drug-1 100 nM,22.4541 U/L and 19.9215 U/L and 18.0282 U/L
same,"SEAP, Drug-1 turn OFF CDH-1-TF",[2]; Drug-1 1000 nM,23.3552 U/L and 18.7039 U/L and 14.93 U/L
same,"SEAP, Drug-1 turn OFF CDH-1-GEMS",[2]; Drug-1 0.001 nM,63.1346 U/L and 76.9207 U/L and 59.8899 U/L
same,"SEAP, Drug-1 turn OFF CDH-1-GEMS",[2]; Drug-1 0.01 nM,62.4115 U/L and 58.8113 U/L and 53.5466 U/L
same,"SEAP, Drug-1 turn OFF CDH-1-GEMS",[2]; Drug-1 0.1 nM,64.3309 U/L and 62.8524 U/L and 59.3961 U/L
same,"SEAP, Drug-1 turn OFF CDH-1-GEMS",[2]; Drug-1 1 nM,47.8019 U/L and 47.3132 U/L and 39.8687 U/L
same,"SEAP, Drug-1 turn OFF CDH-1-GEMS",[2]; Drug-1 10 nM,42.6016 U/L and 46.6627 U/L and 42.2581 U/L
same,"SEAP, Drug-1 turn OFF CDH-1-GEMS",[2]; Drug-1 100 nM,43.3282 U/L and 43.4567 U/L and 33.8379 U/L
same,"SEAP, Drug-1 turn OFF CDH-1-GEMS",[2]; Drug-1 1000 nM,36.4444 U/L and 23.5312 U/L and 44.7329 U/L
